Assay results reported in US10342804B2, “Steroid compound for use in the treatment of hepatic encephalopathy” (Umecrine Cognition AB, priority 2014, dated 2019).

Legend:
Assay type in all cases: in vivo, rat
[1] = Concentrations in plasma and brain tissue after exogenous administration, LC-MS (Example 5); details: for Unbound brain concentration: 1-2 h after last treatment, seven weeks daily 20 mg/kg s.c.
Excerpt: The study was divided into two series with animals (male Wistar rats), each series included the following groups; Controls treated with vehicle (CV, n=8 per series), Controls treated with 3α-ethynyl-3β-hydroxyandrostan-17-one oxime (C+GAM, n=8 per series), hyperammonemic rats treated with vehicle (HAV, n=8 per series), hyperammonemic rats treated with 3α-ethynyl-3β-hydroxyandrostan-17-one oxime (HA+GAM, n=8 per series). The once daily treatment with 3α-ethynyl-3β-hydroxyandrostan-17-one oxime at 20 mg/kg or with vehicle was performed with subcutaneous injections of 1 ml/kg around 9 a.m. Treatment started one week after starting with the ammonium containing diet and continued for the whole experimental period.
Blood was obtained from the tail of the rats (from Example 2) in the end of second week of ammonia treatment and first week of 3α-ethynyl-3β-hydroxyandrostan-17-one oxime treatment and also from the neck during the animal sacrifice. To obtain the plasma it was added EDTA […] and centrifuged at 1500 r.p.m during 5 minutes.
Rats were sacrificed by decapitation. One half of the brain including the cerebellum was collected and conserved at −80° C. for determination of 3α-ethynyl-3β-hydroxyandrostan-17-one oxime. Different brain areas (cerebellum, cortex, hippocampus and striatum) were dissected and conserved at −80° C. for possible determination of GAMS.
Collected brain and plasma samples were analyzed for 3α-ethynyl-3β-hydroxyandrostan-17-one oxime concentrations. Plasma and brain samples were thawed at room temperature. Plasma was protein-precipitated with a 3-fold volume with acetonitrile and brain tissue was homogenized with a 1:4 ratio of tissue:PBS (pH 7.4) and then extracted with a 2-fold volume of methanol:acetonitrile (1:1) for 20 min during sonication. Thereafter samples were shaken and centrifuged for 10 min at 10 000×g (Heraeus Pico 17 centrifuge).
The supernatant was then diluted with an equal volume of PBS and analyzed. Some samples were reanalyzed as 10-fold dilutions due to too high concentration of 3α-ethynyl-3β-hydroxyandrostan-17-one oxime. […]

[2] = tested on: PCS rats; assay: Morris water maze memory test, PCS rats (Example 9)
Method: (§1) Male Wistar rats (220-240 g) were anesthetized with isoflurane, and an end-to side porta-caval anastomosis was performed as described by Lee and Fisher (Surgery, 1961, 50, 668-672).
(§2) Rats that were subjected to the porta-caval anastomosis procedure are herein referred to as “PCS rats”.
3α-ethynyl-3β-hydroxyandrostan-17-one oxime in sesame oil was administered by subcutaneous injections in the back of the rats, once daily. Two different sets of experiments were performed in hyperammonemic rats. In the first set four groups of rats were used: 1) control rats injected with vehicle; 2) hyperammonemic rats injected with vehicle; 3) control rats injected with 20 mg/Kg of 3α-ethynyl-3β-hydroxyandrostan-17-one oxime and 4) hyperammonemic rats injected with 20 mg/Kg of 3α-ethynyl-3β-hydroxyandrostan-17-one oxime. […]
The test was carried out as described by Monfort et al. (European Journal of Neuroscience, 2007, 25, 2103-2111) using a circular pool (160 cm diameter, 40 cm height) arbitrarily divided into four quadrants. […] The time needed to find the hidden platform was recorded manually and used as a measure of learning of the task.
Spatial memory was assessed 24 hours later by removing the platform and measuring the time spent by the rat in the quadrant where the platform was.

[3] = tested on: PCS rats; assay: Radial maze test, PCS rats (Example 10)
Method: as §1, §2
(§3) 3α-ethynyl-3β-hydroxyandrostan-17-one oxime in sesame oil was administered by subcutaneous injections in the back of the rats, once daily. Two different sets of experiments were performed in hyperammonemic rats. In the first set four groups of rats were used: 1) control rats injected with vehicle; 2) hyperammonemic rats injected with vehicle; 3) control rats injected with 20 mg/Kg of 3α-ethynyl-3β-hydroxyandrostan-17-one oxime and 4) hyperammonemic rats injected with 20 mg/Kg of 3α-ethynyl-3β-hydroxyandrostan-17-one oxime.
For the experiments using PCS rats, the following groups of rats were used: 1) Sham rats injected with vehicle; 2) PCS rats injected with vehicle; 3-4) PCS rats injected with 0.7 or 2.5 mg/Kg of 3α-ethynyl-3β-hydroxyandrostan-17-one oxime. […]
The apparatus was composed of a central area that gave access to eight equally-sized arms. […] The number of working memory errors (visits to arms already visited in the same trial) were recorded and expressed as working errors.

[4] = tested on: PCS rats; assay: Circadian rhythms of spontaneous locomotor activity (actimeter), PCS rats (Example 11)
Method: as §1, §2, §3
For the experiments using PCS rats, the following groups of rats were used: 1) Sham rats injected with vehicle; 2) PCS rats injected with vehicle; 3-4) PCS rats injected with 0.7 or 2.5 mg/Kg of 3α-ethynyl-3β-hydroxyandrostan-17-one oxime. The number of rats used in each experiment is either shown in the corresponding Figure or given in the description of the corresponding Figure.
Motor activity was measured using an actimeter (Med Associates, S t. Albans, Vt.). Rats were placed individually in an open-field activity chamber (43×43×31 cm), and motor activity was recorded continuously for 14 days in conditions of light-dark (L:D), 12 h:12 h. Data were recorded at intervals of 5 minutes. Motor activity was detected by arrays of infrared motion detectors, placed in three directions, x, y and z. One ambulatory count is recorded by the apparatus when the rat interrupts three consecutive infrared detectors, in x or y position. A vertical count is recorded when rat interrupts infrared detectors in z position. The software allows measuring different parameter of motor activity, such as ambulatory counts or vertical counts (Ahabrach et al. Journal of Neuroscience Research, 2010, 88, 1605-14).

## C#C[C@]1(O)CC[C@@]2(C)C(CC[C@@H]3[C@@H]2CC[C@]2(C)/C(=N\O)CC[C@@H]32)C1 (stereo partly drawn) [3α-ethynyl-3β-hydroxyandrostan-17-one oxime]
[1]; HA rats
  Unbound brain concentration: 106 ± 15.4 nmol/kg
[1]; control rats
  Unbound brain concentration: 91 ± 4.1 nmol/kg
[1]; treatment day five, 20 mg/kg s.c., control and hyperammonemic rats
  Total concentration in plasma, 23 hours vs 4 hours after injection: lower 23 hours after injection than 4 hours after injection
[2]; 0.7 mg/kg
  Percentage of time spent in the correct quadrant, Morris water maze memory test: 34±4%
[2]; 2.5 mg/kg
  Percentage of time spent in the correct quadrant, Morris water maze memory test: 39±3%
[3]; 0.7 mg/Kg
  Number of working errors in days 1-2, radial maze: 23±2 errors
[3]; 2.5 mg/Kg
  Number of working errors in days 1-2, radial maze: 11±1 errors
[4]; 0.7 mg/kg
  Motor activity (ambulatory counts) during the night: 2652±275 counts
  Night/day ratio of ambulatory activity: 1.7±0.2
  Night/day ratio of vertical activity: 2.1±0.4
  Vertical activity during the day: 339±47 counts
  Vertical activity during the night: 664±121 counts
[4]; 2.5 mg/kg
  Motor activity (ambulatory counts) during the night: 2235±170 counts
  Night/day ratio of ambulatory activity: 1.6±0.3
  Night/day ratio of vertical activity: 1.9±0.6
  Vertical activity during the day: 424±44 counts
  Vertical activity during the night: 695±185 counts
